Our source for the 3 h FOB score values is the OligoGym collection.

HELM strings list units from the 5' end as sugar, base in round brackets, then linkage (d deoxyribose, r ribose, m 2'-O-methyl, p phosphodiester). Strings are as the collection lists them; they lack the last nucleoside at the 3' end of the tested compound. [moe] = 2'-O-(2-methoxyethyl) (MOE); [sp] = phosphorothioate linkage; [m5C] = 5-methylcytosine

This data set concerns the target SCN2A. Kind of data set: mouse, dose not given. Particulars: ASO.
Take “RNA1{[moe](G)[sp].[moe](T)p.[moe](A)p.[moe](A)p.[moe]([m5C])p.[moe]([m5C])p.d(T)[sp].d(T)[sp].d(T)[sp].d(A)[sp].d(T)[sp].d(A)[sp].d([m5C])[sp].d(A)[sp].d(T)[sp].d(T)[sp].[moe](T)p.[moe](A)[sp].[moe](A)}$$$$ (last 3' nucleoside missing)”: the 3 h FOB score was 0 score 0-7.
Substance “RNA1{[moe](G)[sp].[moe](T)p.[moe](A)p.[moe](A)p.[moe]([m5C])p.d([m5C])[sp].d(T)[sp].d(T)[sp].d(T)[sp].d(A)[sp].d(T)[sp].d(A)[sp].d([m5C])[sp].d(A)[sp].d(T)[sp].[moe](T)p.[moe](T)p.[moe](A)[sp].[moe](A)}$$$$ (last 3' nucleoside missing)” yielded a 3 h FOB score of 0.33 score 0-7.
The value for “RNA1{[moe](G)[sp].[moe](T)p.[moe](A)p.[moe](A)p.d(T)[sp].d([m5C])[sp].d(A)[sp].d([m5C])[sp].d(T)[sp].d(T)[sp].d(T)[sp].d([m5C])[sp].d(A)[sp].d(T)[sp].[moe]([m5C])p.[moe]([m5C])p.[moe](A)p.[moe]([m5C])[sp].[moe](G)}$$$$ (last 3' nucleoside missing)” was 2 score 0-7.
The figure for “RNA1{[moe](G)[sp].[moe](T)p.[moe](A)p.[moe](A)p.d([m5C])[sp].d([m5C])[sp].d(T)[sp].d(T)[sp].d(T)[sp].d(A)[sp].d(T)[sp].d(A)[sp].d([m5C])[sp].d(A)[sp].[moe](T)p.[moe](T)p.[moe](T)p.[moe](A)[sp].[moe](A)}$$$$ (last 3' nucleoside missing)” is 0 score 0-7.
For “RNA1{[moe](G)[sp].[moe](T)p.[moe](T)p.[moe](T)p.d(T)[sp].d(T)[sp].d(T)[sp].d([m5C])[sp].d(A)[sp].d(T)[sp].d(T)[sp].d(G)[sp].d([m5C])[sp].d(A)[sp].[moe](T)p.[moe]([m5C])p.[moe]([m5C])p.[moe](T)[sp].[moe]([m5C])}$$$$ (last 3' nucleoside missing)”, the 3 h FOB score worked out at 1 score 0-7.
Regarding “RNA1{[moe](G)[sp].[moe](T)p.[moe](T)p.[moe]([m5C])p.[moe]([m5C])p.d(A)[sp].d(T)[sp].d(T)[sp].d(A)[sp].d(A)[sp].d(A)[sp].d([m5C])[sp].d(T)[sp].d(A)[sp].d(A)[sp].[moe](G)p.[moe](G)p.[moe]([m5C])[sp].[moe](T)}$$$$ (last 3' nucleoside missing)”, the 3 h FOB score is 1 score 0-7.
The value for “RNA1{[moe](G)[sp].[moe](T)p.[moe]([m5C])p.[moe](T)p.[moe]([m5C])p.[moe](T)p.d(T)[sp].d(T)[sp].d([m5C])[sp].d(T)[sp].d(T)[sp].d(A)[sp].d(T)[sp].d(T)[sp].d(T)[sp].d([m5C])[sp].[moe](T)p.[moe](G)[sp].[moe](T)}$$$$ (last 3' nucleoside missing)” was 1 score 0-7; that for “RNA1{[moe](G)[sp].[moe](T)p.[moe]([m5C])p.[moe](T)p.[moe]([m5C])p.d(T)[sp].d(T)[sp].d(T)[sp].d([m5C])[sp].d(T)[sp].d(T)[sp].d(A)[sp].d(T)[sp].d(T)[sp].d(T)[sp].[moe]([m5C])p.[moe](T)p.[moe](G)[sp].[moe](T)}$$$$ (last 3' nucleoside missing)” was 1 score 0-7; that for “RNA1{[moe](G)[sp].[moe](T)p.[moe]([m5C])p.[moe](T)p.d([m5C])[sp].d(T)[sp].d(T)[sp].d(T)[sp].d([m5C])[sp].d(T)[sp].d(T)[sp].d(A)[sp].d(T)[sp].d(T)[sp].[moe](T)p.[moe]([m5C])p.[moe](T)p.[moe](G)[sp].[moe](T)}$$$$ (last 3' nucleoside missing)” was 0 score 0-7.
Turning to “RNA1{[moe](G)[sp].[moe]([m5C])p.[moe](A)p.[moe](T)[sp].d(G)[sp].d(T)[sp].d(A)[sp].d(A)[sp].d([m5C])[sp].d([m5C])[sp].d(T)[sp].d(T)[sp].[moe](T)p.[moe](A)p.[moe](T)p.[moe](A)[sp].[moe]([m5C])}$$$$ (last 3' nucleoside missing)”, the 3 h FOB score was determined as 0 score 0-7.
“RNA1{[moe](G)[sp].[moe]([m5C])p.[moe](A)p.[moe](T)p.[moe](A)p.[moe](A)p.d(T)[sp].d([m5C])[sp].d([m5C])[sp].d([m5C])[sp].d(A)[sp].d(T)[sp].d(T)[sp].d(A)[sp].d(T)[sp].d(A)[sp].[moe]([m5C])p.[moe](A)[sp].[moe](A)}$$$$ (last 3' nucleoside missing)” returned a 3 h FOB score of 0 score 0-7.
The value for “RNA1{[moe](G)[sp].[moe]([m5C])p.[moe](A)p.[moe](T)p.[moe](A)p.d(A)[sp].d(T)[sp].d([m5C])[sp].d([m5C])[sp].d([m5C])[sp].d(A)[sp].d(T)[sp].d(T)[sp].d(A)[sp].d(T)[sp].[moe](A)p.[moe]([m5C])p.[moe](A)[sp].[moe](A)}$$$$ (last 3' nucleoside missing)” was 0.5 score 0-7; that for “RNA1{[moe](G)[sp].[moe]([m5C])p.[moe](A)p.[moe](T)p.[moe](G)[sp].d(T)[sp].d(A)[sp].d(A)[sp].d([m5C])[sp].d([m5C])[sp].d(T)[sp].d(T)[sp].d(T)[sp].[moe](A)p.[moe](T)p.[moe](A)[sp].[moe]([m5C])}$$$$ (last 3' nucleoside missing)” was 0 score 0-7; that for “RNA1{[moe](G)[sp].[moe]([m5C])p.[moe](A)p.[moe](T)p.[moe](G)p.[moe](T)[sp].d(A)[sp].d(A)[sp].d([m5C])[sp].d([m5C])[sp].d(T)[sp].d(T)[sp].d(T)[sp].d(A)[sp].[moe](T)p.[moe](A)[sp].[moe]([m5C])}$$$$ (last 3' nucleoside missing)” was 0.33 score 0-7.
Substance “RNA1{[moe](G)[sp].[moe]([m5C])p.[moe](A)p.[moe](T)p.[moe](G)p.[moe](T)p.d(A)[sp].d(A)[sp].d([m5C])[sp].d([m5C])[sp].d(T)[sp].d(T)[sp].d(T)[sp].d(A)[sp].d(T)[sp].d(A)[sp].[moe]([m5C])p.[moe](A)[sp].[moe](T)}$$$$ (last 3' nucleoside missing)” showed a 3 h FOB score of 0 score 0-7.
The figure for “RNA1{[moe](G)[sp].[moe]([m5C])p.[moe](A)p.[moe](T)p.[moe](G)p.[moe](T)p.d(T)[sp].d(T)[sp].d(A)[sp].d(T)[sp].d([m5C])[sp].d(T)[sp].d(T)[sp].d(A)[sp].d(G)[sp].d(T)[sp].[moe](T)p.[moe]([m5C])[sp].[moe](T)}$$$$ (last 3' nucleoside missing)” is 1.67 score 0-7; for “RNA1{[moe](G)[sp].[moe]([m5C])p.[moe](A)p.[moe](T)p.[moe](G)p.d(T)[sp].d(A)[sp].d(A)[sp].d([m5C])[sp].d([m5C])[sp].d(T)[sp].d(T)[sp].d(T)[sp].d(A)[sp].d(T)[sp].[moe](A)p.[moe]([m5C])p.[moe](A)[sp].[moe](T)}$$$$ (last 3' nucleoside missing)” it is 0 score 0-7.
The value for “RNA1{[moe](G)[sp].[moe]([m5C])p.[moe](A)p.[moe](T)p.[moe](G)p.d(T)[sp].d(T)[sp].d(T)[sp].d(A)[sp].d(T)[sp].d([m5C])[sp].d(T)[sp].d(T)[sp].d(A)[sp].d(G)[sp].[moe](T)p.[moe](T)p.[moe]([m5C])[sp].[moe](T)}$$$$ (last 3' nucleoside missing)” was 1 score 0-7.
The figure for “RNA1{[moe](G)[sp].[moe]([m5C])p.[moe](A)p.[moe](T)p.d(A)[sp].d(A)[sp].d(T)[sp].d([m5C])[sp].d([m5C])[sp].d([m5C])[sp].d(A)[sp].d(T)[sp].d(T)[sp].d(A)[sp].[moe](T)p.[moe](A)p.[moe]([m5C])p.[moe](A)[sp].[moe](A)}$$$$ (last 3' nucleoside missing)” is 0 score 0-7; for “RNA1{[moe](G)[sp].[moe]([m5C])p.[moe](A)p.[moe](T)p.d(A)[sp].d(T)[sp].d(T)[sp].d([m5C])[sp].d(T)[sp].d(A)[sp].d(A)[sp].d([m5C])[sp].d(A)[sp].d(T)[sp].[moe](G)p.[moe](G)p.[moe](T)p.[moe]([m5C])[sp].[moe](T)}$$$$ (last 3' nucleoside missing)” it is 1.67 score 0-7.
Substance “RNA1{[moe](G)[sp].[moe]([m5C])p.[moe](A)p.[moe](T)p.d(G)[sp].d(T)[sp].d(A)[sp].d(A)[sp].d([m5C])[sp].d([m5C])[sp].d(T)[sp].d(T)[sp].d(T)[sp].d(A)[sp].[moe](T)p.[moe](A)p.[moe]([m5C])p.[moe](A)[sp].[moe](T)}$$$$ (last 3' nucleoside missing)” displayed a 3 h FOB score of 0 score 0-7.
As for “RNA1{[moe](G)[sp].[moe]([m5C])p.[moe](A)p.[moe](T)p.d(G)[sp].d(T)[sp].d(T)[sp].d(T)[sp].d(A)[sp].d(T)[sp].d([m5C])[sp].d(T)[sp].d(T)[sp].d(A)[sp].[moe](G)p.[moe](T)p.[moe](T)p.[moe]([m5C])[sp].[moe](T)}$$$$ (last 3' nucleoside missing)”, the 3 h FOB score is 0 score 0-7.
With “RNA1{[moe](G)[sp].[moe]([m5C])p.[moe](T)p.[moe](T)p.[moe](T)p.d([m5C])[sp].d([m5C])[sp].d([m5C])[sp].d(T)[sp].d(T)[sp].d(T)[sp].d(A)[sp].d(T)[sp].d(T)[sp].d([m5C])[sp].[moe](A)p.[moe](A)p.[moe](T)[sp].[moe](A)}$$$$ (last 3' nucleoside missing)”, the 3 h FOB score came to 0 score 0-7.
The value for “RNA1{[moe](G)[sp].[moe]([m5C])p.[moe]([m5C])p.[moe](A)p.d(T)[sp].d(T)[sp].d(T)[sp].d([m5C])[sp].d(T)[sp].d(A)[sp].d(T)[sp].d(A)[sp].d(A)[sp].d([m5C])[sp].[moe](T)p.[moe]([m5C])p.[moe](A)p.[moe](G)[sp].[moe]([m5C])}$$$$ (last 3' nucleoside missing)” was 0 score 0-7; that for “RNA1{[moe](G)[sp].[moe]([m5C])p.[moe]([m5C])p.[moe](T)p.[moe](A)p.d([m5C])[sp].d(T)[sp].d(T)[sp].d([m5C])[sp].d([m5C])[sp].d(T)[sp].d(T)[sp].d([m5C])[sp].d([m5C])[sp].d(A)[sp].[moe](A)p.[moe](G)p.[moe](G)[sp].[moe](A)}$$$$ (last 3' nucleoside missing)” was 0.33 score 0-7.
